Values joined by “and” are separate entries in the source; they are usually repeats but may differ in a detail not shown here. Equal values may be shown once. “Also recorded” adds a separate entry of the source. Read-outs that look alike come from different tables or passages of the source.
How the values were obtained:
Type in all cases: physicochemical
[1] = Drug release from DC Bead LUMI in saline; conditions: for release in saline from DC Bead LUMI after multiple washes in deionized water: single replicates
Procedure: […] Briefly, drug-loaded DC Bead LUMI or LC Bead (62.5 µL) were placed in vessels with 50 mL of saline ([…], pH 7.4) and were agitated with upright rocking motion at a set maximum rocking speed of 10 (70 rpm) for 144 h at 37 °C using Ward's® Rotating Mixer. At scheduled time intervals identical to the loading time points, 1 mL of release media was withdrawn and used for drug quantification. To maintain 50 mL total elution volume, 1 mL of fresh saline pre heated to 37 °C was replaced at each timepoint. […] 2.4. The cumulative amount of drug released at each time point was calculated by multiplying the concentration of each sample aliquot by the total volume (50 mL) of release media and adding the sum of the amount of drug removed for sampling at prior time points. […] The 50 mL volume was chosen to ensure infinite sink conditions where the maximum possible concentration of eluted drug would be at least 10 times more dilute than the maximum solubility. This ensures the rate of release is not affected by solution concentration but is only a function of interactions of the bead, drug, and saline.

[2] = pKa measurement by triple titration in methanol–water co-solvent with Yasuda-Shedlovsky extrapolation; conditions: for pKa: methanol–water co-solvent, aqueous value by Yasuda-Shedlovsky extrapolation; for psKa1 / psKa2: methanol–water
Procedure: pKa measurements were performed by Pion Inc, UK Ltd using known methods as previously reported[47]–[50] or calculated by using software MoKa (Molecular Discovery, Borehamwood, Hertfordshire, UK, https://www.moldiscovery.com/software/moka/#references) or directly obtained from the literature. For GARD and DSR 6434, a triple titration was carried out under methanol–water co-solvent conditions from pH 2.0–12.0 at concentrations of 2.3–1.3 mM (the methanol mixing ratio varied from 49.0 to 28.9% w/w) and 1.5–0.9 mM (the methanol mixing ratio varied from 49.6 to 29.1% w/w), respectively.

[3] = Washing of drug-loaded beads with deionized water and microscopic appearance
Procedure: (§1) Drug loading was performed in triplicate as previously reported[45] with slight modifications. […] Washing of beads is often a critical step in drug release studies as any drug left unbound to the beads affects the release profile and exaggerates the early burst release. […] However, washing was discontinued for TLR drugs as drug was continually observed even after multiple washes. […] The amount of drug loaded at the specified time points was calculated by subtracting the amount of drug remaining from the initial amount of drug in the loading solution and the cumulative amount of drug withdrawn for sampling. The maximum drug loaded in the beads was calculated once no further change in the concentration in the loading solution could be measured and before washing the beads. The relative percent drug loaded was defined as the maximum amount of drug loaded as a percent of the amount of SO3^- ions available in the beads on a molar basis using the following formula and the results are presented as the mean ± SD.

[4] = Drug loading into DC Bead LUMI
Procedure: as §1, with “DC Bead LUMI was analyzed for its elemental composition by MEDAC Inc. […] Drug” for “Drug”

[5] = Drug solubilization by salt formation in acid; conditions: HPLC, two peaks observed
Procedure: The base form of each drug was suspended in deionized water and titrated with 0.1 N hydrochloric acid (Fisher Scientific, Hampton, NH) while stirring until all the base was solubilized and the volume adjusted to a final concentration of 2.5 mg/mL. The resulting solution was frozen, then lyophilized to yield solid drug-hydrochloride salt or used in its solubilized form for loading into DC Bead LUMI. […] Doxorubicin.HCl was readily solubilized and used without modification. […] A ZORBAX Eclipse Plus C8 reversed-phase column (Agilent) and UV detector at wavelength of 230 nm were used for GS-9620 analysis. The decomposition product of GS-9620 was analyzed with reversed phase high-performance liquid chromatography (Rp-HPLC) and LC/MS.

CCNCc1nc2c(N)nc3ccccc3c2n1CC(C)(C)O [GARD, gardiquimod]
release in saline from DC Bead LUMI after multiple washes in deionized water ([1]; 5 min): 13.8548 mg/mL of beads and 16.8316 mg/mL of beads and 16.696 mg/mL of beads | release in saline from DC Bead LUMI after multiple washes in deionized water ([1]; 15 min): 6.978 mg/mL of beads and 10.4756 mg/mL of beads and 7.4826 mg/mL of beads | release in saline from DC Bead LUMI after multiple washes in deionized water ([1]; 30 min): 11.5876 mg/mL of beads and 14.6655 mg/mL of beads and 10.6769 mg/mL of beads | release in saline from DC Bead LUMI after multiple washes in deionized water ([1]; 45 min): 12.1501 mg/mL of beads and 14.1614 mg/mL of beads and 16.9158 mg/mL of beads | release in saline from DC Bead LUMI after multiple washes in deionized water ([1]; 60 min): 12.3872 mg/mL of beads and 11.2006 mg/mL of beads and 10.7852 mg/mL of beads | release in saline from DC Bead LUMI after multiple washes in deionized water ([1]; 120 min): 6.495 mg/mL of beads and 18.2582 mg/mL of beads and 8.614 mg/mL of beads | release in saline from DC Bead LUMI after multiple washes in deionized water ([1]; 180 min): 13.4173 mg/mL of beads and 9.599 mg/mL of beads and 8.837 mg/mL of beads | release in saline from DC Bead LUMI after multiple washes in deionized water ([1]; 240 min): 11.2341 mg/mL of beads and 19.3333 mg/mL of beads and 19.2869 mg/mL of beads | release in saline from DC Bead LUMI after multiple washes in deionized water ([1]; 300 min): 11.4298 mg/mL of beads and 19.0264 mg/mL of beads and 20.0563 mg/mL of beads | release in saline from DC Bead LUMI after multiple washes in deionized water ([1]; 360 min): 14.8464 mg/mL of beads and 16.7671 mg/mL of beads and 17.7148 mg/mL of beads | release in saline from DC Bead LUMI after multiple washes in deionized water ([1]; 420 min): 10.7872 mg/mL of beads and 18.9583 mg/mL of beads and 16.16 mg/mL of beads | release in saline from DC Bead LUMI after multiple washes in deionized water ([1]; 480 min): 14.0597 mg/mL of beads and 15.9257 mg/mL of beads and 20.8469 mg/mL of beads | release in saline from DC Bead LUMI after multiple washes in deionized water ([1]; 1440 min): 16.384 mg/mL of beads and 22.102 mg/mL of beads and 14.1626 mg/mL of beads | release in saline from DC Bead LUMI after multiple washes in deionized water ([1]; 2880 min): 17.882 mg/mL of beads and 19.297 mg/mL of beads and 22.6822 mg/mL of beads | release in saline from DC Bead LUMI after multiple washes in deionized water ([1]; 4320 min): 17.16 mg/mL of beads and 21.3309 mg/mL of beads and 22.7224 mg/mL of beads | release in saline from DC Bead LUMI after multiple washes in deionized water ([1]; 8640 min): 16.9125 mg/mL of beads and 21.9345 mg/mL of beads and 17.7447 mg/mL of beads | release behaviour in saline ([1]; DC Bead LUMI): rapid release | pKa ([2]; read-out: pKa (first, measured)): 7.02 | pKa ([2]; read-out: pKa (second, measured)): 8.02 | psKa1 ([2]; dielectric constant 56.8): 6.81 | psKa2 ([2]; dielectric constant 56.8): 7.83 | psKa1 ([2]; dielectric constant 61.6): 6.89 | psKa2 ([2]; dielectric constant 61.6): 7.88 | psKa1 ([2]; dielectric constant 66): 6.92 | psKa2 ([2]; dielectric constant 66): 7.94 | removal of drug from beads by repeated washing with deionized water ([3]; DC Bead LUMI): partially removed | aggregation of drug during washing / elution ([3]; deionized water and saline, microscopy): absence of aggregated | Relative percent drug loaded in DC Bead LUMI over time ([4]; 5 min, single replicates): 55.2766% and 60.9514% and 46.1831% | Relative percent drug loaded in DC Bead LUMI over time ([4]; 15 min, single replicates): 43.0802% and 66.0616% and 55.143% | Relative percent drug loaded in DC Bead LUMI over time ([4]; 30 min, single replicates): 48.003% and 64.9413% and 48.1153% | Relative percent drug loaded in DC Bead LUMI over time ([4]; 45 min, single replicates): 42.5221% and 54.7578% and 59.077% | Relative percent drug loaded in DC Bead LUMI over time ([4]; 60 min, single replicates): 49.9393% and 67.8727% and 53.1769% | Relative percent drug loaded in DC Bead LUMI over time ([4]; 120 min, single replicates): 71.3739% and 70.6276% and 67.3547% | Relative percent drug loaded in DC Bead LUMI over time ([4]; 180 min, single replicates): 60.3259% and 72.9711% and 72.9791% | Relative percent drug loaded in DC Bead LUMI over time ([4]; 240 min, single replicates): 61.2934% and 72.504% and 74.4803% | Relative percent drug loaded in DC Bead LUMI over time ([4]; 300 min, single replicates): 61.9583% and 65.0576% and 73.7822% | Relative percent drug loaded in DC Bead LUMI over time ([4]; 360 min, single replicates): 62.1239% and 73.4051% and 73.7491% | Relative percent drug loaded in DC Bead LUMI over time ([4]; 420 min, single replicates): 57.6019% and 70.5665% and 69.0951% | Relative percent drug loaded in DC Bead LUMI over time ([4]; 480 min, single replicates): 60.233% and 70.8296% and 71.2658% | Relative percent drug loaded in DC Bead LUMI over time ([4]; 1440 min, single replicates): 61.7405% and 70.3053% and 72.3473% | Relative percent drug loaded in DC Bead LUMI over time ([4]; 2880 min, single replicates): 58.2466% and 69.7502% and 67.5798% | Relative percent drug loaded in DC Bead LUMI over time ([4]; 4320 min, single replicates): 62.5088% and 74.175% and 74.3147% | Relative percent drug loaded in DC Bead LUMI over time ([4]; 8640 min, single replicates): 62.7357% and 73.7536% and 73.1477% | loading behaviour ([4]; DC Bead LUMI): Fast loading | Relative percent drug loaded (maximum, percent of SO3− available on a molar basis) ([4]; DC Bead LUMI, mean (n = 3)): 73% and 73.34% | equivalent of drug loaded to sulfonated bead ([4]; DC Bead LUMI, mean ± SD): 0.21 ± 0.00 mM drug/ml beads | Maximum drug loaded ([4]; DC Bead LUMI, mean ± SD, n = 3, base form except Dox (salt form)): 65.97 ± 1.54 mg drug/ml beads | Maximum drug loaded (Triplicate), % ([4]; DC Bead LUMI, single replicates): 71.3739% and 74.175% and 74.4803% | Drug: sulfonate ([4]; molar ratio at maximum loading, DC Bead LUMI): 0.733 | Theoretical maximum loading level based on SO3− contents ([4]; per mL DC Bead LUMI, assuming 1:1 drug to sulfonate): 89.95 mg

CCCCOc1nc(N)c2c(n1)N(Cc1cccc(CN3CCCC3)c1)CC(=O)N2 [GS-9620]
stability in the solubilizing conditions [5]: partially decomposed; also recorded: not stable
